The test system of assay [1] is Leishmania amazonensis. As to the kind of experiment: Antileishmanial activity against Leishmania amazonensis promastigotes assessed as parasite growth inhibition incubated for 24 hrs. Format: functional, organism-based.
In assay [2] the test system is Leishmania donovani. As to the kind of experiment: Antileishmanial activity against Leishmania donovani MHOM/IN/1983/AG83 promastigote assessed as reduction in parasite growth incubated for 12 hrs by MTT assay. In kind it is functional, organism-based. To be noted: MHOM/IN/1983/AG83, 12 h.
Assay [3] has as its system Leishmania donovani. As to the kind of experiment: Antileishmanial activity against Leishmania donovani promastigotes infected in hamster assessed as reduction in parasite load in spleen. Format: functional, organism-based.
The target of assay [4] is T1, Arginase (Leishmania amazonensis, UniProt O96394). As to the kind of experiment: Inhibition of Leishmania amazonensis Arginase.
Assay [5] is described as follows: Inhibition of Leishmania braziliensis DNA topoisomerase I.
Assay [6] has as its system Leishmania amazonensis. As to the kind of experiment: Antileishmanial activity against Leishmania amazonensis axenic amastigote assessed as inhibition of parasite growth incubated for 72 hrs by MTT colorimetric assay. Format: functional, organism-based.
The subject of assay [7] is Leishmania amazonensis. As to the kind of experiment: Antileishmanial activity against Leishmania amazonensis axenic promastigotes assessed as inhibition of parasite growth incubated for 72 hrs by MTT colorimetric assay. Format: functional, organism-based. A general note: Tetrazolium dyes change colour on reduction, which living cells bring about.
The next assay concerns Leishmania mexicana. As to the kind of experiment: Antileishmanial activity against Leishmania mexicana promastigotes MHOM/B2/62/BEL21 assessed as reduction in parasite growth by tryphan blue staining based analysis. Format: functional, organism-based.
Assay [8] relates to Leishmania infantum. As to the kind of experiment: Antileishmanial activity against Leishmania infantum amastigotes assessed as inhibition of parasite growth. In kind it is functional, organism-based.
Assay [9] has as its system Leishmania infantum. As to the kind of experiment: Antileishmanial activity against GFP-expressing Leishmania infantum intracellular amastigotes infected in human THP-1 derived macrophage cells assessed as reduction in parasite viability measured for 72 hrs by resazurin/alamar blue fluorometric assay. The note with it: THP-1, 72 h. In kind it is functional, organism-based. A general note: Resazurin is reduced to fluorescent resorufin, in cell work by metabolically active cells.

In assay [10] the test system is Leishmania infantum. As to the kind of experiment: Inhibition of Leishmania infantum promastigotes Arginase expressed in Escherichia coli BL21 (DE3) at 100 uM by enzymatic assay relative to control.
In assay [11] the test system is Leishmania infantum. As to the kind of experiment: Inhibition of Leishmania infantum Arginase expressed in Escherichia coli BL21 (DE3) at 100 uM by enzymatic assay relative to control.
Assay [12] is described as follows: Inhibition of recombinant rat liver arginase.
Assay [13] deals with Leishmania infantum. As to the kind of experiment: Antileishmanial activity against Leishmania infantum infected in BALB/c mouse assessed as reduction of parasite burden in spleen at 2.5 mg/kg for 15 days relative to control. Format: functional. More on the design: scale not given: the % may be the effect or the level left. The note with it: time 15 day.
Assay [14] has as its target T1, Arginase. As to the kind of experiment: Inhibition of Leishmania amazonensis Arginase assessed as inhibition constant.
Assay [15] deals with Leishmania donovani. As to the kind of experiment: Antileishmanial activity against Leishmania donovani MHOM/IN/83/AG83 promastigotes infected in BALB/c mouse assessed as reduction of parasite burden in spleen at 20 mg/kg per day relative to control. In kind it is functional. More on the design: scale not given: the % may be the effect or the level left.
Assay [16] concerns Leishmania amazonensis. As to the kind of experiment: Antiprotozoal activity against Leishmania amazonensis axenic amastigotes assessed as growth inhibition measured after 5 days by MTT assay. Format: functional, organism-based. To be noted: 120 h.

pEC50, pIC50, pKi: −log10 of the molar value. Converted amounts (≈) assume the structure as drawn. Bounds are passed on as bounds.

The pIC50 is the IC50 on a negative log10 scale, so that one unit is a factor of ten. In the case of `CCN(CC)CCOC(=O)c1ccc(NCCC(=O)c2ccc([N+](=O)[O-])cc2)cc1`, the pIC50 with Leishmania amazonensis [1] is 4.91.
`O=C1OC(c2ccc(Cl)cc2)c2cc(-c3ccc(Cl)cc3)cc(O)c21` (configuration not stated): the pIC50 in the assay on Leishmania donovani [2] was 5.27; with Leishmania donovani [3], 5.01.
On to `CC(=O)Cc1ccccc1C(F)(F)C(=O)NNc1ccccc1`, for which the pIC50 against Arginase [4] was 4.90.
Consider `O=C1C(O)=C(CC2=C(O)C(=O)c3ccccc3C2=O)C(=O)c2ccccc21`, for which the pIC50 in [5] is 4.15.
Consider `CO[C@@]12[C@H](COC(N)=O)C3=C(C(=O)C(C)=C(N)C3=O)N1C[C@@H]1N[C@@H]12` [MITOMYCIN], for which the pIC50 in the assay with Leishmania amazonensis [6] is 4.94; in the assay with Leishmania amazonensis [7], 4.89.
Take `COc1ccc(C(C2=C(O)C(=O)c3ccccc3C2=O)C2=C(O)C(=O)c3ccccc3C2=O)cc1`: in assay [5], the pIC50 is less than 4.00.
`CCCCCC(C1=C(O)C(=O)c2ccccc2C1=O)C1=C(O)C(=O)c2ccccc2C1=O` gave a negative-log IC50 (pIC50) in assay [5] of 5.28.
Usually IC50 stands for the point on the concentration scale where inhibition reaches its midpoint. With `C[C@@H]1[C@H](O)[C@@H](C)/C=C/C=C/C=C/C=C/C=C/C=C/C=C/[C@H](O[C@@H]2O[C@H](C)[C@@H](O)[C@H](N)[C@@H]2O)C[C@@H]2O[C@](O)(C[C@@H](O)C[C@@H](O)[C@H](O)CC[C@@H](O)C[C@@H](O)CC(=O)O[C@H]1C)C[C@H](O)[C@H]2C(=O)O` [AMPHOTERICIN B], the IC50 in the assay with Leishmania mexicana was 0.036 µg/mL (≈ 0.039 µM).
As to `COc1cccc(C2Nc3cccnc3[C@H]3c4ccccc4C[C@@H]23)c1` (some centres not stated), the pIC50 in the assay on Leishmania infantum [8] was 6.27.
A word on the pEC50: it is the negative decadic logarithm of the EC50, by convention in mol/L. As for `O=C(CC12CC3CC(CC(C3)C1)C2)Nc1ccc([Se][Se]c2ccc(NC(=O)C34CC5CC(CC(C5)C3)C4)cc2)cc1`, in the assay with Leishmania infantum [9], the pEC50 was 5.92.
For orientation: inhibition means the drop in the measured response relative to a control, in per cent. Regarding `O=C(/C=C/c1ccc([N+](=O)[O-])cc1)c1ccc(Br)cc1`, the figures for the inhibition with Leishmania infantum [10] and with Leishmania infantum [11] were 55.2% and 71.9%, respectively.
`COc1ccc(C(=O)/C=C/c2ccc([N+](=O)[O-])cc2)cc1`: the inhibition amounted to 70.4% in the assay on Leishmania infantum [10] and 69.5% in the assay with Leishmania infantum [11].
Regarding `O=C(O[C@@H]1Cc2c(O)cc(O)cc2O[C@@H]1c1cc(O)c(O)c(O)c1)c1cc(O)c(O)c(O)c1` [EPIGALOCATECHIN GALLATE], the pIC50 in assay [12] is 5.42.
With `CCc1ccc2c(c1)C1c3ccccc3CC1C(c1ccccn1)N2` (configuration not stated), in the assay on Leishmania mexicana, the IC50 turned out to be 1 µg/mL (≈ 3.06 µM).
Turning to `Fc1ccc(C2Nc3cccnc3[C@H]3c4ccccc4C[C@@H]23)c(F)c1` (some centres not stated), the pIC50 in the assay with Leishmania infantum [8] is 6.17.
`COc1cc2c3c(n(CCCN4CCOCC4)c(=O)c2cc1OC)-c1cc2c(cc1C3=O)OCO2` [INDOTECAN]: in the assay on Leishmania infantum [13], the Activity is on record as 80%.
For the molecule `Oc1cc(O)c2c(c1)O[C@H](c1ccc(O)c(O)c1)[C@@H](O)C2` [CIANIDANOL], the pIC50 in assay [12] is 5.74.
As for `O=C(c1ccc(Br)cc1)c1cc(O)cc(-c2ccc(Br)cc2)c1`, the negative logarithm of the IC50 (pIC50) in the assay with Leishmania donovani [2] was 5.22; with Leishmania donovani [3], 4.94.
Broadly, the pKi is −log10 of the Ki, conventionally taken in molar units. As for `CC1OC(O[C@H]2[C@H](O)[C@@H](OCCc3ccc(O)c(O)c3)OC(CO)[C@H]2OC(=O)/C=C/c2ccc(O)c(O)c2)C(O)C(O)C1O` (some centres not stated), the negative-log IC50 (pIC50) at Arginase [4] is 4.85. Also, the pKi at Arginase [14] was 4.59.
Consider `COc1cccc2c1C(=O)c1c(O)c3c(c(O)c1C2=O)C[C@@](O)(C(=O)CO)C[C@@H]3O[C@H]1C[C@H](N)[C@H](O)[C@H](C)O1` [DOXORUBICIN], for which the pIC50 was 4.92 in the assay on Leishmania amazonensis [6] and 4.93 in the assay with Leishmania amazonensis [7].
The molecule `O=C1C(O)=C(C(C2=C(O)C(=O)c3ccccc3C2=O)c2ccc(F)cc2)C(=O)c2ccccc21` showed a pIC50 in assay [5] of 6.22.
Take sodium antimony gluconate: in the assay with Leishmania donovani [15], the Activity came out at 97%.
As for `COc1ccc2c(c[n+](C)c3c4cc5c(cc4ccc23)OCO5)c1OC` [CHELERYTHRINE], the negative-log IC50 (pIC50) with Leishmania amazonensis [16] was 7.52.
With `O=C(/C=C/c1ccc(O)c(O)c1)O[C@@H](Cc1ccc(O)c(O)c1)C(=O)O`, the pIC50 on Arginase [4] was 4.55. Besides, at Arginase [14], the pKi is 5.89.

Source of the values: ChEMBL document CHEMBL5620368, “Molecular-level strategic goals and repressors in Leishmaniasis - Integrated data to accelerate target-based heterocyclic scaffolds” (Eur J Med Chem, 2023).
